Laboratory results: ChEMBL document CHEMBL5653615 (J Biol Chem, 2013)
Active and inactive are the calls of the source. No cut-off for these calls is given here.

Experiments:
[1] = target: BDNF/NT-3 growth factors receptor (Homo sapiens) (UniProt Q16620); test: Inhibition of human TRKB at 18.6 nM by HotSpot assay relative to control
[2] = target: Mitogen-activated protein kinase kinase kinase kinase 5 (Homo sapiens) (UniProt Q9Y4K4); test: Inhibition of human KHS at 18.6 nM by HotSpot assay relative to control
[3] = target: RAC-alpha serine/threonine-protein kinase (Homo sapiens) (UniProt P31749); test: Inhibition of human AKT1 at 18.6 nM by HotSpot assay relative to control
Sequence of RAC-alpha serine/threonine-protein kinase (Homo sapiens) (P31749 whole entry): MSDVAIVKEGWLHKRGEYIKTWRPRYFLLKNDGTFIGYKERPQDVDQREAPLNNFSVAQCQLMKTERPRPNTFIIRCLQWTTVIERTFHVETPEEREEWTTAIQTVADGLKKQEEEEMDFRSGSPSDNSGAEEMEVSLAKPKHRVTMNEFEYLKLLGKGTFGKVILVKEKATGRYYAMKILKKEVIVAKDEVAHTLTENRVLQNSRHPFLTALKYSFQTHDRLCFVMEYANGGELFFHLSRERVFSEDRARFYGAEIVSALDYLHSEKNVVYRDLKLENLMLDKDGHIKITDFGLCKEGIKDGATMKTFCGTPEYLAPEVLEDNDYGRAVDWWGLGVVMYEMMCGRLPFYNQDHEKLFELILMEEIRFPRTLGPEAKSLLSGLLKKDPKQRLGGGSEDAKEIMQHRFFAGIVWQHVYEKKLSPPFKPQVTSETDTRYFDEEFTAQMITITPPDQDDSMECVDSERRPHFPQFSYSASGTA

[4] = target: Misshapen-like kinase 1 (Homo sapiens) (UniProt Q8N4C8); test: Inhibition of human MINK1 at 18.6 nM by HotSpot assay relative to control
[5] = target: Cyclin-dependent kinase 1/cyclin B1 (Homo sapiens) (UniProt P06493+P14635); test: Inhibition of human CDK1/cyclin B at 18.6 nM by HotSpot assay relative to control; format: protein-complex assay
Sequence of Cyclin-dependent kinase 1/cyclin B1 (Homo sapiens) (P06493 whole entry, looked up): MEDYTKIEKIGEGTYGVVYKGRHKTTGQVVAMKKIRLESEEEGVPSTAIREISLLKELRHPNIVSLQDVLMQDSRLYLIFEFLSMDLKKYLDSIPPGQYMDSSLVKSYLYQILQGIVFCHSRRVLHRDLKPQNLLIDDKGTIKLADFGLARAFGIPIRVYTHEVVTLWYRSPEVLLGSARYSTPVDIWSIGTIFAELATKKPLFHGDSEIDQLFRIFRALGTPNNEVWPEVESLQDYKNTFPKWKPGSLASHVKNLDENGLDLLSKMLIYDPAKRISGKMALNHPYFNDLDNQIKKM
Sequence of Cyclin-dependent kinase 1/cyclin B1 (Homo sapiens) (P14635 whole entry, looked up): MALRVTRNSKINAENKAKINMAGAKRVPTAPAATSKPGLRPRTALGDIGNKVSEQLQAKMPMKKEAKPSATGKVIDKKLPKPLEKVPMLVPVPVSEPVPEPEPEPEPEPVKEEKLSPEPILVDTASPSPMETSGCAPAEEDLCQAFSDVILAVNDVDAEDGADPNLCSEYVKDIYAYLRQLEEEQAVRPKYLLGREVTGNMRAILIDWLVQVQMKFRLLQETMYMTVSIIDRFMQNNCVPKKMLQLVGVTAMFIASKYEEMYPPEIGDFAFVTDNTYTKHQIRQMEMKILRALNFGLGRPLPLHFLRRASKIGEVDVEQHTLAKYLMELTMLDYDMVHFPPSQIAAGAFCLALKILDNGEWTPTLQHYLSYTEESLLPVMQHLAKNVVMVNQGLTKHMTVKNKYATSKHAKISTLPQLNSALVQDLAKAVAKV

[6] = target: Cyclin-dependent kinase 2/cyclin E1 (Homo sapiens) (UniProt P24864+P24941); test: Inhibition of human CDK2/cyclin E at 18.6 nM by HotSpot assay relative to control; format: protein-complex assay
[7] = target: T1, Phosphorylase b kinase gamma catalytic chain, liver/testis isoform (Homo sapiens) (UniProt P15735); test: Inhibition of human PHKg2 at 18.6 nM by HotSpot assay relative to control
T1 sequence (whole entry): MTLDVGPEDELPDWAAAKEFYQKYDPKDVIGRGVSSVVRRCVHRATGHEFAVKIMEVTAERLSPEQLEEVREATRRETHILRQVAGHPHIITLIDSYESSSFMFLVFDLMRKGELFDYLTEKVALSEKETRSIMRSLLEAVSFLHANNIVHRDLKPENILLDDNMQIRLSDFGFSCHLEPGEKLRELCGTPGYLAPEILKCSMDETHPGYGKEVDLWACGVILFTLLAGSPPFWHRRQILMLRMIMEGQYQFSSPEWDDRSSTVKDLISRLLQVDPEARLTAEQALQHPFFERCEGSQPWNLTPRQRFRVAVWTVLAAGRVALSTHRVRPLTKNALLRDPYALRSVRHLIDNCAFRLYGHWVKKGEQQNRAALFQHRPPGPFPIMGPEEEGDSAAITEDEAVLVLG

[8] = target: Insulin receptor (Homo sapiens) (UniProt P06213); test: Inhibition of wild-type human Insulin receptor autophosphorylation in CHO-K1 cell lysate at 10 uM for 30 mins on ice followed by insulin stimulation for 10 mins by Western blot analysis; format: subcellular; settings: time 40.0 min
Sequence of Insulin receptor (Homo sapiens) (P06213 28-758 limits assumed): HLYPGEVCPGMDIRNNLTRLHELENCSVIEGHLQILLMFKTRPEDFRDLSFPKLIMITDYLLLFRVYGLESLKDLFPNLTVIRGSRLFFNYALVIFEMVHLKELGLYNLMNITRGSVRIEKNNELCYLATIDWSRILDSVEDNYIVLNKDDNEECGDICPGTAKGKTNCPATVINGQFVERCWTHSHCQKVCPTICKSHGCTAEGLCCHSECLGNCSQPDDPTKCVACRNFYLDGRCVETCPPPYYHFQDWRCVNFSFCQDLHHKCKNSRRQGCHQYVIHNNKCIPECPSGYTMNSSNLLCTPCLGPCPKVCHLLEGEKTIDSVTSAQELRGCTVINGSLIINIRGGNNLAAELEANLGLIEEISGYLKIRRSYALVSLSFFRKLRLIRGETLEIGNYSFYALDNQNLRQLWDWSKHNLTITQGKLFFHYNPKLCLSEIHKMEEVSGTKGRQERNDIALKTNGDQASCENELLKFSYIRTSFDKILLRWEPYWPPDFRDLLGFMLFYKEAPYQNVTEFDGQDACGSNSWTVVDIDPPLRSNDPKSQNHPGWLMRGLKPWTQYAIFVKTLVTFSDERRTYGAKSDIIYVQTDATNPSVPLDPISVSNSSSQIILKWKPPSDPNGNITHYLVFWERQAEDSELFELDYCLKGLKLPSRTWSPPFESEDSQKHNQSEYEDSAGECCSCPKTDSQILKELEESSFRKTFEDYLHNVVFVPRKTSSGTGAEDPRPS
Sequence of Insulin receptor (Homo sapiens) (P06213 763-1382 limits assumed): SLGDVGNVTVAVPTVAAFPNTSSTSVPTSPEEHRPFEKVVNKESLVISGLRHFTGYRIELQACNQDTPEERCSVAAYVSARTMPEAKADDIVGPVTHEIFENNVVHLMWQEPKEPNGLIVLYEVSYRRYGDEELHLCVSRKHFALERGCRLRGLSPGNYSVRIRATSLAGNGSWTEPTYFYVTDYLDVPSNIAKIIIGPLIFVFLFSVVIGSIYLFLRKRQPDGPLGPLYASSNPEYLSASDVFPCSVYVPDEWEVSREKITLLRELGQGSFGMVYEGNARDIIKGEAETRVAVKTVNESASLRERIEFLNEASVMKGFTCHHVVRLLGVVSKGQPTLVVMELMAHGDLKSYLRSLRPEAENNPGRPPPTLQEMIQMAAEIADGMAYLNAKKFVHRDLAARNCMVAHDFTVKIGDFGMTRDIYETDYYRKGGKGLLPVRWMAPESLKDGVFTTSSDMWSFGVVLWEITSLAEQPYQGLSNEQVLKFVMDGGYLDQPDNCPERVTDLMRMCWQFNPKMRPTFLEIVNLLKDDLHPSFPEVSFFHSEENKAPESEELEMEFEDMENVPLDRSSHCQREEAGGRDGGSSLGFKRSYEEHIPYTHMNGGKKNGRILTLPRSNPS

[9] = target: G protein-coupled receptor kinase 4 (Homo sapiens) (UniProt P32298); test: Inhibition of human GRK4 at 1.82 nM by HotSpot assay relative to control
[10] = target: Myosin light chain kinase 2, skeletal/cardiac muscle (Homo sapiens) (UniProt Q9H1R3); test: Inhibition of human MYLK2 at 1.82 nM by HotSpot assay relative to control
[11] = target: Calcium/calmodulin-dependent protein kinase type 1G (Homo sapiens) (UniProt Q96NX5); test: Inhibition of human CAMK1g at 1.82 nM by HotSpot assay relative to control
[12] = target: T2, Dual specificity tyrosine-phosphorylation-regulated kinase 3 (Homo sapiens) (UniProt O43781); test: Inhibition of human DYRK3 at 1.82 nM by HotSpot assay relative to control
T2 sequence (whole entry): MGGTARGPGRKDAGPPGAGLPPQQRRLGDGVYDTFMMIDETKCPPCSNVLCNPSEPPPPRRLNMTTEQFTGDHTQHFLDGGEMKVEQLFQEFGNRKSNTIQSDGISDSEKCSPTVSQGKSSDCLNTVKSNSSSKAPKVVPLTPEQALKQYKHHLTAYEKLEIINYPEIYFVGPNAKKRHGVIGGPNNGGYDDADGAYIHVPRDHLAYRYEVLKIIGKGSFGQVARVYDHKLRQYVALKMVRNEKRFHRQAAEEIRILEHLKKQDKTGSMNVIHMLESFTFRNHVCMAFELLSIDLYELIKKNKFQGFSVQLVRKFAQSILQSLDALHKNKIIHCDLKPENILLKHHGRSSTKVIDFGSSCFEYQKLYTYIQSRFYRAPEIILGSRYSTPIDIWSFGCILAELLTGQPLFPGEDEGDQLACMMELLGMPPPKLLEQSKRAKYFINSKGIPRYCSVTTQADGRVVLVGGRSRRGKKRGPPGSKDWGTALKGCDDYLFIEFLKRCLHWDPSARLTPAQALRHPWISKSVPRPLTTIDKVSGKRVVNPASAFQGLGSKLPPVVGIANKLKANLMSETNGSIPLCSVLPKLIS

[13] = target: Casein kinase I isoform alpha (Homo sapiens) (UniProt P48729); test: Inhibition of human CK1a1 at 1.82 nM by HotSpot assay relative to control
[14] = target: Tyrosine-protein kinase SYK (Homo sapiens) (UniProt P43405); test: Inhibition of human SYK at 1.82 nM by HotSpot assay relative to control
[15] = target: MAP kinase-activated protein kinase 3 (Homo sapiens) (UniProt Q16644); test: Inhibition of human MAPKAPK3 at 1.82 nM by HotSpot assay relative to control
Sequence of MAP kinase-activated protein kinase 3 (Homo sapiens) (Q16644 whole entry, looked up): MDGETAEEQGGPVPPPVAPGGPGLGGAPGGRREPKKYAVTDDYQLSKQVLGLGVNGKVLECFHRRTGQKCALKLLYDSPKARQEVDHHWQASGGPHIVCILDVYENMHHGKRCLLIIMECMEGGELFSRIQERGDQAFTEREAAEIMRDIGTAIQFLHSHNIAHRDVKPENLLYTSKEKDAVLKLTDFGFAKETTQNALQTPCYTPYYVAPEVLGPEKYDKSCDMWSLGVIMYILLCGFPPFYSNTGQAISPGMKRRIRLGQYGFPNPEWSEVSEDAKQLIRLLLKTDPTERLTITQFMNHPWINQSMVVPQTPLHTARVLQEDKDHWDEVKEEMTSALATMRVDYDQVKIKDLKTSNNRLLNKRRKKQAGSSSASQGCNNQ

[16] = target: Platelet-derived growth factor receptor beta (Homo sapiens) (UniProt P09619); test: Inhibition of human PDGFRb at 1.82 nM by HotSpot assay relative to control
[17] = target: Serine/threonine-protein kinase PLK2 (Homo sapiens) (UniProt Q9NYY3); test: Inhibition of human PLK2 at 1.82 nM by HotSpot assay relative to control
[18] = target: Dual specificity protein kinase CLK3 (Homo sapiens) (UniProt P49761); settings: dose 1.82 nM
Description: Inhibition of human CLK3 at 1.82 nM by HotSpot assay relative to control

[19] = target: T3, Serine/threonine-protein kinase Sgk1 (Homo sapiens) (UniProt O00141); test: Inhibition of human SGK1 at 1.82 nM by HotSpot assay relative to control
T3 sequence (whole entry): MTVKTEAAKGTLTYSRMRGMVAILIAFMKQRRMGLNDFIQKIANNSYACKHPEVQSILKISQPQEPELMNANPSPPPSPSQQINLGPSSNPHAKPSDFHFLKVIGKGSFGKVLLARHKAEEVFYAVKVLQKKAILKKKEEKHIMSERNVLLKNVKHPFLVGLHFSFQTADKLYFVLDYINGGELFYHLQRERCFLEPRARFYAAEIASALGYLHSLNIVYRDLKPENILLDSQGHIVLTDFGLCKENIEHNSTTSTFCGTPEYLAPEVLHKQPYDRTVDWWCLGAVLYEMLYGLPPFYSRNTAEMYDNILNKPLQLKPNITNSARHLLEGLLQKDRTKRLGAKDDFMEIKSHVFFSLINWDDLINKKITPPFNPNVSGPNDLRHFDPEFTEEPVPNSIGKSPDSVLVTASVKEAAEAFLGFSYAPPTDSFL

[20] = target: Receptor tyrosine-protein kinase erbB-2 (Homo sapiens) (UniProt P04626); test: Inhibition of human ERBB2 at 1.82 nM by HotSpot assay relative to control
Sequence of Receptor tyrosine-protein kinase erbB-2 (Homo sapiens) (P04626 whole entry): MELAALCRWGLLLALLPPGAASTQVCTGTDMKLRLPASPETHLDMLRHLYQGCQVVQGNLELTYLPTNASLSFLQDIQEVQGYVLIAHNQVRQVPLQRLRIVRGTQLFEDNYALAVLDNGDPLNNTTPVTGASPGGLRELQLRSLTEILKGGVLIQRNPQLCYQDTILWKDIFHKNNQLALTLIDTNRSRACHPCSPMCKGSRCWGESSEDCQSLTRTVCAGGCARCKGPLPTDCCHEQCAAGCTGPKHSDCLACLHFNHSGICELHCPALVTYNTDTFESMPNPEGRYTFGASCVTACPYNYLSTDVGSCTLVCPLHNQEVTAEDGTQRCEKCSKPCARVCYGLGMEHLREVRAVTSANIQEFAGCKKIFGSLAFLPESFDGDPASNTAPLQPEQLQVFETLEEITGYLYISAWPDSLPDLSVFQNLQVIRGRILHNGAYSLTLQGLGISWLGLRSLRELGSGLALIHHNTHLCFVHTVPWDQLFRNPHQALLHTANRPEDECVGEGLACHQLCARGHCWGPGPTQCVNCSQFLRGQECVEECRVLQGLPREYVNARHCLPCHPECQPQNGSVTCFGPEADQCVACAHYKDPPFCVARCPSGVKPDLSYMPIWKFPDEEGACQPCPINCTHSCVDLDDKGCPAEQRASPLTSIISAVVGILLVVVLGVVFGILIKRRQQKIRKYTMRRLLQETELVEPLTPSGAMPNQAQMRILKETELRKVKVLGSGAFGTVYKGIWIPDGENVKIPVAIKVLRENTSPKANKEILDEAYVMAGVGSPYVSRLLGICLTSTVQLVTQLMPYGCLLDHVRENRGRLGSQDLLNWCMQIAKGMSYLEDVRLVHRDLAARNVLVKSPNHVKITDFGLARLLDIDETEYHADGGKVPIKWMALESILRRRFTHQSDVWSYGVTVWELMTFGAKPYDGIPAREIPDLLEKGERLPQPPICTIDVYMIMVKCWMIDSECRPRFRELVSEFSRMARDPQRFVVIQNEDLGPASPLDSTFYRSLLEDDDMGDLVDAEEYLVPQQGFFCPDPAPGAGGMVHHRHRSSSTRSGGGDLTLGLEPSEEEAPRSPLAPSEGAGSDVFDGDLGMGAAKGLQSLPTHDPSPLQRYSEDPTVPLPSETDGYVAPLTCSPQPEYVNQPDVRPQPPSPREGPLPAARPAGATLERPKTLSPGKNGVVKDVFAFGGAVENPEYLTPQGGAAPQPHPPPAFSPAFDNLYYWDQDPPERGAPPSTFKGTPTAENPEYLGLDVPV

Sequence of BDNF/NT-3 growth factors receptor (Homo sapiens) (Q16620 32-822 limits assumed): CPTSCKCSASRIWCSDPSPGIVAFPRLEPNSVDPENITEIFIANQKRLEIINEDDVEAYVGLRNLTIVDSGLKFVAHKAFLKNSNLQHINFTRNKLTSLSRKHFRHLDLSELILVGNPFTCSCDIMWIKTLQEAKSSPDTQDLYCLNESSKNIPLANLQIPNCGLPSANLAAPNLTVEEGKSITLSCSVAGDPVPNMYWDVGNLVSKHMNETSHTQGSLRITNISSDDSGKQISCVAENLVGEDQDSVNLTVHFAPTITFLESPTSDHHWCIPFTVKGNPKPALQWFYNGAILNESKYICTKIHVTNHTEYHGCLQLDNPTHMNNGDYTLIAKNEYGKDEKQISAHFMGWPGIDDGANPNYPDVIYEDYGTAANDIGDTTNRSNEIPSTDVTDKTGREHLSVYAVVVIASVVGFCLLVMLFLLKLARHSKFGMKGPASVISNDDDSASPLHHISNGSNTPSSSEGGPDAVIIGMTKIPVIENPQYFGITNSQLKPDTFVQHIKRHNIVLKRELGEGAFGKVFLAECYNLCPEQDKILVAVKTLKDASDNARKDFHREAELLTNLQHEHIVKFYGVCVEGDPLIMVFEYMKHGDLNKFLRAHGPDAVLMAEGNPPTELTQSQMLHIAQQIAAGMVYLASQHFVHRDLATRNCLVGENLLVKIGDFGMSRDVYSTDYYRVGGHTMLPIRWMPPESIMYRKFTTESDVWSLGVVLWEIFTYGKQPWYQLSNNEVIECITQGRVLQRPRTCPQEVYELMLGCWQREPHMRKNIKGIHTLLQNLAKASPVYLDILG

**Q.** Which inhibition [1] does the source give for C[C@]1(O)C[C@@H](c2nc(-c3ccc4ccc(-c5ccccc5)nc4c3)c3c(N)nccn32)C1 here?
**A.** Its inhibition is -7.44%.

**Q.** What about the inhibition [2] of the same compound?
**A.** Its inhibition is 12.1%.

**Q.** What about the inhibition [3] of the same compound?
**A.** Its inhibition is -3.01%.

**Q.** And the inhibition [4]?
**A.** Its inhibition is -2.76%.

**Q.** What about the inhibition [5] of the same compound?
**A.** Its inhibition is 1.65%.

**Q.** What about the inhibition [6] of the same compound?
**A.** The inhibition was 2.03%.

**Q.** What about the inhibition [7] of the same compound?
**A.** Its inhibition is -2.29%.

**Q.** With Oc1n[nH]c2nnc(-c3c(-c4ccccc4)nn4ccccc34)cc12 as the compound, how does the inhibition [8] read?
**A.** The inhibition was “Active”.

**Q.** C[C@@]1(C(=O)Nc2ccc(F)nc2)CCCN1c1nc(Nc2cc(C3CC3)n[nH]2)c2cccn2n1 was tested. Which inhibition [9] did it give?
**A.** Its inhibition is 0.72%.

**Q.** What about the inhibition [10] of the same compound?
**A.** Its inhibition is -4.22%.

**Q.** And the inhibition [11]?
**A.** The inhibition was 7.27%.

**Q.** And the inhibition [12]?
**A.** The inhibition was 8.06%.

**Q.** And the inhibition [13]?
**A.** Its inhibition is -1.84%.

**Q.** And the inhibition [14]?
**A.** The inhibition was -1.25%.

**Q.** What about the inhibition [15] of the same compound?
**A.** The inhibition was -1.61%.

**Q.** And the inhibition [16]?
**A.** Its inhibition is 10.8%.

**Q.** And the inhibition [17]?
**A.** The inhibition was 1.2%.

**Q.** What about the inhibition [18] of the same compound?
**A.** Its inhibition is -1.35%.

**Q.** And the inhibition [19]?
**A.** The inhibition was -2.56%.

**Q.** And the inhibition [20]?
**A.** The inhibition was 5.5%.
